Test results as given in patent publication US20260256792A1, “TREATMENT OF CHRONIC SPONTANEOUS URTICARIA BY ADMINISTERING (R)-2-[3-[4-AMINO-3-(2-FLUORO-4-PHENOXY-PHENYL)PYRAZOLO[3,4-D]PYRIMIDIN-1-YL]PIPERIDINE-1-CARBONYL]-4-METHYL-4-[4-(OXETAN-3-YL)PIPERAZIN-1-YL]PENT-2-ENENITRILE” (priority 2023, published 2026).

Tested on: moderate-to-severe chronic spontaneous urticaria (CSU)
Assay: Phase 2 CSU study: itch severity score over 7 days (ISS7)
Assay type: in vivo, human
Details: for Non-responder n (%) (ISS7 reduction of 5 points or more) / OR for rilzabrutinib vs. placebo (ISS7 reduction of 5 points or more) / RRD (%) for rilzabrutinib vs. placebo (ISS7 reduction of 5 points or more) / Responder n (%) (ISS7 reduction of 5 points or more) / Imputed non-responder n (%) (ISS7 reduction of 5 points or more): ITT population
Description: The study comprises a 12 week, randomized, double-blind, placebo-controlled, multi-center, dose-ranging efficacy and safety phase, followed by a 40 week open label extension (OLE) phase (see FIG. 1). The study consists of three phases and an optional OLE phase. […] Clinically, CSU is characterized by the spontaneous and recurrent appearance of pruritic hives. The proposed primary endpoints were the UAS7 at Week 12 in EU and EU reference countries and the ISS7 in the US. Regardless of where a participant was from, all assessments were the same. The UAS7 score is a composite score containing both the HSS7 and the ISS7. This allowed a global assessment of the two key components of urticaria: hives and itch. […] The UAS is a validated PRO measure. […] The daily UAS scores range from 0 to 6 point/day. […] Patients were to complete the UAS using the e-diary. […] The following secondary endpoints were to be analyzed using the same approach as for the primary endpoint: • Change from baseline in UAS7 at Week 4 • Change from baseline in UAS7 at Week 12 (for US and US reference countries) • Change from baseline in ISS7 at Week 12 (except US and US reference countries) • Change from baseline in HSS7 at Week 12

CC(C)(C=C(C#N)C(=O)N1CCC[C@@H](n2nc(-c3ccc(Oc4ccccc4)cc3F)c3c(N)ncnc32)C1)N1CCN(C2COC2)CC1 [rilzabrutinib, (R)-2-[3-[4-amino-3-(2-fluoro-4-phenoxy-phenyl)pyrazolo[3,4-d]pyrimidin-1-yl]piperidine-1-carbonyl]-4-methyl-4-[4-(oxetan-3-yl)piperazin-1-yl]pent-2-enenitrile]
Non-responder n (%) (ISS7 reduction of 5 points or more) (400 mg QPM, Week 4): 20 (52.6) n (%) | OR for rilzabrutinib vs. placebo (ISS7 reduction of 5 points or more) (400 mg QPM, Week 4): 1.076 | RRD (%) for rilzabrutinib vs. placebo (ISS7 reduction of 5 points or more) (400 mg QPM, Week 4): 1.7% | Responder n (%) (ISS7 reduction of 5 points or more) (400 mg QPM, Week 4): 18 (47.4) n (%) | Non-responder n (%) (ISS7 reduction of 5 points or more) (400 mg QPM, Week 6): 20 (52.6) n (%) | OR for rilzabrutinib vs. placebo (ISS7 reduction of 5 points or more) (400 mg QPM, Week 6): 1.066 | RRD (%) for rilzabrutinib vs. placebo (ISS7 reduction of 5 points or more) (400 mg QPM, Week 6): 1.5% | Responder n (%) (ISS7 reduction of 5 points or more) (400 mg QPM, Week 6): 18 (47.4) n (%) | Imputed non-responder n (%) (ISS7 reduction of 5 points or more) (400 mg QPM, Week 7): 6 (15.8) n (%) | Non-responder n (%) (ISS7 reduction of 5 points or more) (400 mg QPM, Week 7): 19 (50.0) n (%) | OR for rilzabrutinib vs. placebo (ISS7 reduction of 5 points or more) (400 mg QPM, Week 7): 1.138 | RRD (%) for rilzabrutinib vs. placebo (ISS7 reduction of 5 points or more) (400 mg QPM, Week 7): 3.1% | Responder n (%) (ISS7 reduction of 5 points or more) (400 mg QPM, Week 7): 19 (50.0) n (%) | Imputed non-responder n (%) (ISS7 reduction of 5 points or more) (400 mg QPM, Week 8): 7 (18.4) n (%) | Non-responder n (%) (ISS7 reduction of 5 points or more) (400 mg QPM, Week 8): 20 (52.6) n (%) | OR for rilzabrutinib vs. placebo (ISS7 reduction of 5 points or more) (400 mg QPM, Week 8): 0.836 | RRD (%) for rilzabrutinib vs. placebo (ISS7 reduction of 5 points or more) (400 mg QPM, Week 8): −4.5% | Responder n (%) (ISS7 reduction of 5 points or more) (400 mg QPM, Week 8): 18 (47.4) n (%) | Imputed non-responder n (%) (ISS7 reduction of 5 points or more) (400 mg QPM, Week 9): 6 (15.8) n (%) | Non-responder n (%) (ISS7 reduction of 5 points or more) (400 mg QPM, Week 9): 18 (47.4) n (%) | OR for rilzabrutinib vs. placebo (ISS7 reduction of 5 points or more) (400 mg QPM, Week 9): 1.294 | RRD (%) for rilzabrutinib vs. placebo (ISS7 reduction of 5 points or more) (400 mg QPM, Week 9): 5.8% | Responder n (%) (ISS7 reduction of 5 points or more) (400 mg QPM, Week 9): 20 (52.6) n (%) | Imputed non-responder n (%) (ISS7 reduction of 5 points or more) (400 mg QPM, Week 10): 6 (15.8) n (%) | Non-responder n (%) (ISS7 reduction of 5 points or more) (400 mg QPM, Week 10): 14 (36.8) n (%) | OR for rilzabrutinib vs. placebo (ISS7 reduction of 5 points or more) (400 mg QPM, Week 10): 1.593 | Responder n (%) (ISS7 reduction of 5 points or more) (400 mg QPM, Week 10): 24 (63.2) n (%) | Imputed non-responder n (%) (ISS7 reduction of 5 points or more) (400 mg QPM, Week 11): 7 (18.4) n (%) | Non-responder n (%) (ISS7 reduction of 5 points or more) (400 mg QPM, Week 11): 17 (44.7) n (%) | OR for rilzabrutinib vs. placebo (ISS7 reduction of 5 points or more) (400 mg QPM, Week 11): 0.938 | RRD (%) for rilzabrutinib vs. placebo (ISS7 reduction of 5 points or more) (400 mg QPM, Week 11): −1.5% | Responder n (%) (ISS7 reduction of 5 points or more) (400 mg QPM, Week 11): 21 (55.3) n (%) | Imputed non-responder n (%) (ISS7 reduction of 5 points or more) (400 mg QPM, Week 12): 10 (26.3) n (%) | Non-responder n (%) (ISS7 reduction of 5 points or more) (400 mg QPM, Week 12): 21 (55.3) n (%) | OR for rilzabrutinib vs. placebo (ISS7 reduction of 5 points or more) (400 mg QPM, Week 12): 0.905 | RRD (%) for rilzabrutinib vs. placebo (ISS7 reduction of 5 points or more) (400 mg QPM, Week 12): −2.6% | Responder n (%) (ISS7 reduction of 5 points or more) (400 mg QPM, Week 12): 17 (44.7) n (%) | Imputed non-responder n (%) (ISS7 reduction of 5 points or more) (400 mg TID, Week 2): 0 n (%) | Non-responder n (%) (ISS7 reduction of 5 points or more) (400 mg TID, Week 2): 13 (31.7) n (%) | OR for rilzabrutinib vs. placebo (ISS7 reduction of 5 points or more) (400 mg TID, Week 2): 4.772 | RRD (%) for rilzabrutinib vs. placebo (ISS7 reduction of 5 points or more) (400 mg TID, Week 2): 35.9% | Responder n (%) (ISS7 reduction of 5 points or more) (400 mg TID, Week 2): 28 (68.3) n (%) | Imputed non-responder n (%) (ISS7 reduction of 5 points or more) (400 mg TID, Week 3): 0 n (%) | Non-responder n (%) (ISS7 reduction of 5 points or more) (400 mg TID, Week 3): 12 (29.3) n (%) | OR for rilzabrutinib vs. placebo (ISS7 reduction of 5 points or more) (400 mg TID, Week 3): 4.110 | RRD (%) for rilzabrutinib vs. placebo (ISS7 reduction of 5 points or more) (400 mg TID, Week 3): 37.3% | Responder n (%) (ISS7 reduction of 5 points or more) (400 mg TID, Week 3): 29 (70.7) n (%) | Imputed non-responder n (%) (ISS7 reduction of 5 points or more) (400 mg TID, Week 4): 3 (7.3) n (%) | Non-responder n (%) (ISS7 reduction of 5 points or more) (400 mg TID, Week 4): 13 (31.7) n (%) | OR for rilzabrutinib vs. placebo (ISS7 reduction of 5 points or more) (400 mg TID, Week 4): 2.155 | RRD (%) for rilzabrutinib vs. placebo (ISS7 reduction of 5 points or more) (400 mg TID, Week 4): 18.8% | Responder n (%) (ISS7 reduction of 5 points or more) (400 mg TID, Week 4): 28 (68.3) n (%) | Imputed non-responder n (%) (ISS7 reduction of 5 points or more) (400 mg TID, Week 5): 3 (7.3) n (%) | Non-responder n (%) (ISS7 reduction of 5 points or more) (400 mg TID, Week 5): 11 (26.8) n (%) | OR for rilzabrutinib vs. placebo (ISS7 reduction of 5 points or more) (400 mg TID, Week 5): 2.433 | RRD (%) for rilzabrutinib vs. placebo (ISS7 reduction of 5 points or more) (400 mg TID, Week 5): 20.9% | Responder n (%) (ISS7 reduction of 5 points or more) (400 mg TID, Week 5): 30 (73.2) n (%) | Imputed non-responder n (%) (ISS7 reduction of 5 points or more) (400 mg TID, Week 6): 5 (12.2) n (%) | Non-responder n (%) (ISS7 reduction of 5 points or more) (400 mg TID, Week 6): 16 (39.0) n (%) | OR for rilzabrutinib vs. placebo (ISS7 reduction of 5 points or more) (400 mg TID, Week 6): 1.574 | Responder n (%) (ISS7 reduction of 5 points or more) (400 mg TID, Week 6): 25 (61.0) n (%) | Imputed non-responder n (%) (ISS7 reduction of 5 points or more) (400 mg TID, Week 7): 6 (14.6) n (%) | Non-responder n (%) (ISS7 reduction of 5 points or more) (400 mg TID, Week 7): 14 (34.1) n (%) | OR for rilzabrutinib vs. placebo (ISS7 reduction of 5 points or more) (400 mg TID, Week 7): 2.038 | RRD (%) for rilzabrutinib vs. placebo (ISS7 reduction of 5 points or more) (400 mg TID, Week 7): 16.8% | Responder n (%) (ISS7 reduction of 5 points or more) (400 mg TID, Week 7): 27 (65.9) n (%) | Imputed non-responder n (%) (ISS7 reduction of 5 points or more) (400 mg TID, Week 8): 8 (19.5) n (%) | Non-responder n (%) (ISS7 reduction of 5 points or more) (400 mg TID, Week 8): 13 (31.7) n (%) | OR for rilzabrutinib vs. placebo (ISS7 reduction of 5 points or more) (400 mg TID, Week 8): 1.839 | RRD (%) for rilzabrutinib vs. placebo (ISS7 reduction of 5 points or more) (400 mg TID, Week 8): 14.6% | Responder n (%) (ISS7 reduction of 5 points or more) (400 mg TID, Week 8): 28 (68.3) n (%) | Imputed non-responder n (%) (ISS7 reduction of 5 points or more) (400 mg TID, Week 9): 7 (17.1) n (%) | Non-responder n (%) (ISS7 reduction of 5 points or more) (400 mg TID, Week 9): 12 (29.3) n (%) | OR for rilzabrutinib vs. placebo (ISS7 reduction of 5 points or more) (400 mg TID, Week 9): 2.730 | RRD (%) for rilzabrutinib vs. placebo (ISS7 reduction of 5 points or more) (400 mg TID, Week 9): 22.5% | Responder n (%) (ISS7 reduction of 5 points or more) (400 mg TID, Week 9): 29 (70.7) n (%) | Imputed non-responder n (%) (ISS7 reduction of 5 points or more) (400 mg TID, Week 10): 7 (17.1) n (%) | Non-responder n (%) (ISS7 reduction of 5 points or more) (400 mg TID, Week 10): 14 (34.1) n (%) | OR for rilzabrutinib vs. placebo (ISS7 reduction of 5 points or more) (400 mg TID, Week 10): 1.669 | Responder n (%) (ISS7 reduction of 5 points or more) (400 mg TID, Week 10): 27 (65.9) n (%) | Imputed non-responder n (%) (ISS7 reduction of 5 points or more) (400 mg TID, Week 11): 6 (14.6) n (%) | Non-responder n (%) (ISS7 reduction of 5 points or more) (400 mg TID, Week 11): 12 (29.3) n (%) | OR for rilzabrutinib vs. placebo (ISS7 reduction of 5 points or more) (400 mg TID, Week 11): 1.699 | Responder n (%) (ISS7 reduction of 5 points or more) (400 mg TID, Week 11): 29 (70.7) n (%) | ISS7 % Change difference for rilzabrutinib vs. placebo LS Mean (95% CI) (ITT, 400 mg BID, Week 1): −23.55% | ISS7 % Change from baseline LS Mean (SE) (ITT, 400 mg BID, Week 1): −34.02 (5.28) % | ISS7 Change difference for rilzabrutinib vs. placebo LS Mean (95% CI) (ITT, 400 mg BID, Week 1): −3.23 | ISS7 Change from baseline LS Mean (SE) (ITT, 400 mg BID, Week 1): −5.23 (0.78) | ISS7 Post-baseline Mean (SD) (ITT, 400 mg BID, Week 1): 10.65 (5.86) | ISS7 % Change difference for rilzabrutinib vs. placebo LS Mean (95% CI) (ITT, 400 mg BID, Week 2): −16.63% | ISS7 % Change from baseline LS Mean (SE) (ITT, 400 mg BID, Week 2): −36.11 (5.26) %
